In patent US6528685B2 (Teva Pharmaceutical Industries, Ltd., priority 1994, dated 2003):
Values joined by “and” are separate entries in the source; they are usually repeats but may differ in a detail not shown here. Equal values may be shown once. Where a name gives a salt, the structure may show the parent alone. Read-outs that look alike come from different tables or passages of the source.

Columns and labels:
rats [1] = experiment: Maximal electroshock (MES) model, rats; conditions: rats, oral (p.o.) administration; median effective dose
mice [2] = experiment: Neurotoxicity in mice, rotorod ataxia test; conditions: mice i.p., rotorod ataxia test
Experimental: (§1) Neurotoxicity of the claimed agents was also assessed in mice (i.p. administration) by the rotorod ataxia test and/or in rats (p.o. administration) by positional sense test and gait stance test. […] The term quantitating the neurotoxicity is the medial neurological toxic dose (TD50), was determined in the above tests.

mice [3] = experiment: Maximal electroshock (MES) model, mice; conditions: mice; for MICE MES ED50: intraperitoneal (i.p.) administration
rats [4] = experiment: Neurotoxicity in rats, positional sense test and gait stance test; conditions: rats p.o.; positional sense test and gait stance test
Experimental: as §1

mice [5] = conditions: mice i.p.
rats [6] = conditions: rats p.o.
[7] = tested on: Mechanically dissociated Neonatal Rat Cerebellum; experiment: Reversal of NMDA induced cell death, neonatal rat cerebellum cultures; format: cell-based; conditions: for SURVIVING CELL IN CULTURE: relative to control (100%); for PERCENT PROTECTION: cell survival minus NMDA effect (30%); for EFFECTIVE PROTECTION: percent protection x 100/70
Experimental: The cerebellum was aseptically dissociated from 6 or 7-day old rat pups and placed in a 15 ml sterile plastic conical tube containing 3 ml of Dulbecco's modified Eagle's medium (DMEM) with a high glucose concentration ([…]) and 2 mM (v/v) L-glutamine and an antibiotic antimitotic mixture. The cerebella were then dissociated after 20-25 passages through a sterile 13 gauge, 10 cm long stainless steel needle attached to a 5 ml syringe with an inserted 45 micrometer pore nylon sieve. The dissociated cells were centrifuged at 200 g for 5 minutes. The supernatant was discarded and the cells resuspended in medium enriched with 15% (v/v) heat inactivated fetal calf serum. Cell viability was determined by the tryptan blue exclusion test.
Cells were plated at a density of 200/mm^2 on poly-L-lysine coated surfaces. Poly-L-lysine coated glass coverslips were prepared at least one hour in advance of plating by immersing sterile coverslips in sterile distilled water solution containing 15 microgram/ml poly-L-lysine, and washing in sterile water just prior to use. The plated cells were covered with enriched medium and incubated at 37° C. in an atmosphere of 5% CO2 in air and 97% humidity. After three days in culture, the media was replaced with media containing the desired test compound. Each test compound was tested in duplicate. Toxic-dose response was determined for each compound.
Four groups were run in each set of experiments;
I. Control, consisting of enriched media alone,
II. N-methyl-D-aspartate (NMDA, 1 mM for 3 hours) as the cytotoxic challenge,
III. Test compound plus NMDA, and
IV. Positive control, spermine(0.01 micromoles) plus NMDA.
Nerve cell survival was evaluated by phase contrast microscopy and tryptan blue staining after 24 hours.
Surviving cells in culture are measured relative to control (100%) as described above. Percent protection is the Cell Survival for the test compound minus the NMDA effect. Thus, maximal protection is 100% minus 30% NMDA effect i.e. 70%. The Effective Protection was calculated as the percent of the Percent Protection (X) divided by the maximal protection value (e.g. X×100/70).

mongolian gerbils = experiment: Global brain ischemia in gerbils; format: in vivo, mongolian gerbil; conditions: 3 injections, fraction of hippocampi protected from ischemia, 14 days post-ischemia
Experimental: Male mongolian gerbils, aged 2.5-5 months, housed 4-8 in a cage, were supplied freely with food and water and maintained at 24° C. with a 12 hour day/night cycle. […] Each artery was clamped for 5 minutes with aneurysm clips to produce global brain ischemia. The anesthesia was discontinued upon clamping. After 5 minutes the clamps were removed and the wound closed with skin clips.
For treatment, the test compound or vehicle were injected intra-peritoneally (ip) in a volume of 50 microliters of solvent per 10 g body weight. The first injection was given two minutes after clamp removal, and thereafter daily for the next 2 post-operative days (total of 3 injections).
Seven groups each of 4-8 animals were compared:
V. Ischemia—Test compound treated, one sub-group per concentration tested,
VI. Ischemia and pentobarbital (40 mg/kg) as positive control).
Analysis of neuronal damage was performed 14 days post-ischemia by counting pyramidal neurons throughout the CA1 layer of the anterior hippocampus in […] thick (paraffin) coronal brain sections stained with hematoxylin and erosin.
Percent Protection values represent the fraction of hippocampi protected from ischemia in a group of animals treated with the stated dose of compound.

NC(=O)CNC1CCc2ccccc21 (racemic) [Compound 3, (rac)-N-(2-Acetamido)-1-aminoindan.HCl]
RATS MES 50 (rats [1]): <50 mg/kg | MICE TD50 (mice [2]): >100 mg/kg and 126 mg/kg | MICE TD50 (mice [2]; listed as 3*): 127 mg/kg | MICE MES ED50 (mice [3]): <100 mg/kg | MICE MES ED50 (mice [3]; listed as 3*): 83 mg/kg | RATS TD50 (rats [4]): >50 mg/kg | MICE scMet ED50 PI (mice [5]): 36 mg/kg | MICE scMet ED50 PI (mice [5]; listed as 3*): >130 mg/kg

NC(=O)CNC1CCc2ccc(F)cc21 (racemic) [Compound 5, (rac)-6-Fluoro-N-(2-acetamido)-1-aminoindan.HCl]
MICE TD50 (mice [2]): >300 mg/kg | MICE TD50 (mice [2]; listed as 5*): 138 mg/kg | activity in the MES model in mice, in words (mice [3]): showed activity | MICE MES ED50 (mice [3]): <100 mg/kg | MICE MES ED50 (mice [3]; listed as 5*): 58 mg/kg | MICE scMet ED50 PI (mice [5]): >200 mg/kg

NC(=O)CN[C@@H]1CCc2ccccc21 [Compound 1, (R)-N-(2-Acetamido)-1-aminoindan.HCl]
RATS MES 50 (rats [1]): 50 mg/kg | MICE TD50 (mice [2]): 198 mg/kg | MICE MES ED50 (mice [3]): 77 mg/kg | RATS TD50 (rats [4]): >50 mg/kg | MICE scMet ED50 PI (mice [5]): >200 mg/kg

CN[C@H]1CCc2ccccc21.Cl [Compound 14, (S)-N-Methyl-1-aminoindan.HCl]
RATS scMet ED50 PI (rats [6]): >71 mg/kg | RATS MES 50 (rats [1]): 94 mg/kg | MICE TD50 (mice [2]): 100 mg/kg | MICE MES ED50 (mice [3]): <100 mg/kg | RATS TD50 (rats [4]): >142 mg/kg

Cl.N[C@@H]1CCc2ccc(O)cc21 [Compound 35, (R)-6-Hydroxy-1-aminoindan.HCl]
SURVIVING CELL IN CULTURE ([7]; 0.005 μM + NMDA 1 mM 3 hours): 60% | PERCENT PROTECTION ([7]; 0.005 μM + NMDA): 30% | EFFECTIVE PROTECTION ([7]; 0.005 μM + NMDA): 43% | SURVIVING CELL IN CULTURE ([7]; 0.010 μM + NMDA 1 mM 3 hours): 34% | PERCENT PROTECTION ([7]; 0.010 μM + NMDA): 4% | EFFECTIVE PROTECTION ([7]; 0.010 μM + NMDA): 6% | SURVIVING CELL IN CULTURE ([7]; 0.100 μM + NMDA 1 mM 3 hours): 30% | PERCENT PROTECTION ([7]; 0.100 μM + NMDA): 0% | EFFECTIVE PROTECTION ([7]; 0.100 μM + NMDA): 0% | PERCENT PROTECTION (mongolian gerbils; 0.1 mg/kg ip): 25.0% | PERCENT PROTECTION (mongolian gerbils; 1.0 mg/kg ip): 37.5% | PERCENT PROTECTION (mongolian gerbils; 10.0 mg/kg ip): 37.5%

Cl.NC(=O)CN[C@@H]1CCc2ccccc21 [D, (R)-Indanylglycinamide-HCl salt]
MICE MES ED50 (mice [3]): 83 mg/kg | RATS TD50 (rats [4]): >180 mg/kg | MICE scMet ED50 PI (mice [5]): >130 mg/kg
